Assay results from US11903927B2, “Combination treatment of cancer” (Scandion Oncology A/S, priority 2016, dated 2024).
Where two headings read alike, the source gives them in different places.

How the values were obtained:
[1] = tested on: human HT29 colon cancer cell line; test: HT29 colon tumour xenograft; type: in vivo; details: mice; NS3728 80 mg/kg PO, paclitaxel 5 mg/kg IP, 5-flourouracil 30 mg/kg IP, alone or combined; dosing days 4-8, 11-15, 18-22
Protocol: The in vivo antitumor effect of NS3728 on the human HT29 colon cancer cell line were tested as monotherapy (80 mg/kg) respectively in combination with paclitaxel (5 mg/kg) or 5-flourouracil (30 mg/kg) in two independent experimental series. NS3728 was given per oral (PO), whereas both paclitaxel and 5-flourouracil were dosed intraperitoneally (IP) by injection.
The dosing occurred in periods (days 4-8; days 11-15, days 18-22) with daily dosing of both NS3728 and cytotoxic drug, interrupted by dosing holidays.

VRAC = details: read-out: IC50 as VRAC blocker; cited from earlier work
[2] = tested on: docetaxel resistant MCF-7 breast cancer cells; test: MTT cell viability, docetaxel resistant MCF-7; type: cell-based, human; details: 72 hours
Source text: (§1) Breast cancer is a heterogenous disease and at least 6 subtypes of breast cancer have been described previously by Soerlie et al (PMID: 11553815). As a major difference, breast cancer can be divided into hormone (estrogen and progesterone) receptor positive and hormone receptor negative breast cancer. We have in our experiments included these two major subtypes. We established human breast cancer cell lines that are resistant to the chemotherapy docetaxel as described in Hansen et al 2015 (PMID: 25596703). These cell lines are MCF-7 and MDA-MB-231.
(§2) Subsequently, NS3728, docetaxel or combinations of the two drugs were added for 72 hours before cell viability was determined. […] Each data point was carried out in triplicate.

[3] = tested on: Docetaxel resistant MDA-MB-231 breast cancer cells; test: MTT cell viability, docetaxel resistant MDA-MB-231; type: cell-based, human
Source text: as §1, §2

[4] = tested on: fulvestrant-resistant MCF-7/LCC9 cells; test: MTT cell viability, fulvestrant resistant MCF-7/LCC9; type: cell-based, human
Protocol: These cell lines are MCF-7/LCC2. We also established human breast cancer cell lines that are resistant to the anti-estrogen Fulvestrant as described in Brünner et al 1997 (PMID: 9270017). MCF-7 is an estrogen and progesterone receptor positive cell line.
as §2

[5] = Protocol: The in vivo anti-tumor effect of NS3728 on C6 glioma cells given either as monotherapy (40 mg/kg/day) or in combination with temozolomide (Temodal, 25 or 5 mg/kg/day) was tested in two separate experiments, using either the xenograft method or the subcutaneous air sac model (SAS; see Lichtenberg, J., P. J. Hjarnaa, P. E. Kristjansen, D. Hansen & L. Binderup: The rat subcutaneous air sac mode: A quantitative assay of antiangiogenesis in induced vessels Pharmacology & Toxicology, 1999, 84, 34-40).
In the first study 5 million C6 rat glioma cells were inoculated into the flank of Fisher rats.

C6 glioma cells = test: C6 glioma subcutaneous air sac (SAS) model; type: in vivo, rat; details: 2.5 million C6 cells on air sac membrane; NS3728 40 mg/kg/day oral, temozolomide 5 mg/kg/day, alone or combined; 10 days of treatment
Protocol: In the second study the tumour growth was retarded by inoculating only half the number of cells (2.5 million of C6 cells per animal) and making use of the subcutaneous air sac (SAS) technique. In brief, the rats were anaesthetized with CO2/O2 and 10-15 ml of air was introduced dorsally by subcutaneous injections to produce an air sac located approximately 4-5 cm behind the head. The wall of the air sac became progressively thicker with time and after 10-14 days a sufficient lining of cells with the appearance of a transparent membrane had been established. The C6 glioma cells were inoculated in the rats directly on the membrane. The treatment was started at the day of inoculation and the study was terminated on day 10 of treatment.

[6] = tested on: SN-38 resistant HCT116 CRC cancer cells; test: MTT cell viability, SN-38 resistant HCT116; type: cell-based, human
Protocol: (§3) These cell lines are HCT116, HT29 and LoVo.
(§4) Each data point was carried out in triplicate.

[7] = tested on: oxaliplatin resistant HT29 CRC cancer cells; test: MTT cell viability, oxaliplatin resistant HT29; type: cell-based, human
Protocol: as §3, §4

[8] = tested on: tamoxifen-resistant MCF-7/LCC2 cells; test: MTT cell viability, tamoxifen resistant MCF-7/LCC2; type: cell-based, human; details: 40 μM NS3728, 72 hours
Protocol: These cell lines are MCF-7/LCC2. We also established human breast cancer cell lines that are resistant to the anti-estrogen Fulvestrant as described in Brünner et al 1997 (PMID: 9270017). MCF-7 is an estrogen and progesterone receptor positive cell line. […] Subsequently, NS3728, docetaxel or combinations of the two drugs were added for 72 hours before cell viability was determined. […] Each data point was carried out in triplicate.

[9] = tested on: SN-38 resistant HT29 CRC cancer cells
Protocol: (§5) The cells were seeded in 96-well plates (10,000 cells/well) and allowed to adhere for 24 hours. Subsequently, NS3728, OXP, SN-38 or combinations of the drugs were added for 48 hours before cell viability was determined. All values are expressed in percentage of untreated cells (named: “no treatment”). “DMSO” refers to the solvent control as both NS3728 and chemotherapeutic drugs are diluted in DMSO. Thus, the DMSO (Dimethyl sulfoxide) control is included to investigate any potential effect on cell viability by the organic solvent. Each data point was carried out in triplicate.

[10] = tested on: SN-38 resistant LoVo CRC cancer cells
Protocol: as §5

cancer cells = details: in vitro; cited from earlier work
[11] = tested on: SN-38 resistant LoVo CRC cancer cells; test: cells; details: Homo sapiens, 48 h, read-out: cell viability
Protocol: as §5

Protocol for HCT116 parental cells: (§6) The cells were seeded in 96-well plates (10,000 cells/well) and allowed to adhere for 24 hours. Subsequently, NS3728, OXP, SN-38 or combinations of NS3728 with one of the cytotoxic drugs were added for 48 hours before cell viability was determined. All values are expressed in percentage of untreated cells (named: “no treatment”). “DMSO” refers to the solvent control as both NS3728 and chemotherapeutic drugs are diluted in DMSO. Thus, the DMSO (Dimethyl sulfoxide) control is included to investigate any potential effect on cell viability by the organic solvent. Each data point was carried out in triplicate.
Protocol for HT29 parental cells: as §6
Protocol for LoVo parental cells: as §6

O=c1[nH]cc(F)c(=O)[nH]1 [5-flourouracil, 5-fluorouracil]
tumour volume growth curves [1]: mild (non-significant) depression of the growth curves

O=S(=O)(O)c1cc(N=C=S)ccc1C=Cc1ccc(N=C=S)cc1S(=O)(=O)O [DIDS]
IC50 (VRAC): 26 µM

CC(=O)O[C@@]12CO[C@@H]1C[C@H](O)[C@@]1(C)C(=O)[C@H](O)C3=C(C)[C@@H](OC(=O)[C@H](O)[C@@H](NC(=O)OC(C)(C)C)c4ccccc4)C[C@@](O)([C@@H](OC(=O)c4ccccc4)[C@H]21)C3(C)C [Docetaxel, docetaxel, reference compound]
cell viability ([2]; 65 nM Docetaxel monotherapy): did not decrease cell viability
cell viability ([3]; 150 nM Docetaxel, 72 hours): about 50 % of untreated controls

C[C@]12CC[C@@H]3c4ccc(O)cc4C[C@@H](CCCCCCCCC[S+]([O-])CCCC(F)(F)C(F)(F)F)[C@H]3[C@@H]1CC[C@@H]2O (stereo partly drawn) [Fulvestrant, fulvestrant, reference compound]
cell viability ([4]; 1 μM Fulvestrant, 72 hours): no effect on the cell viability

O=C(O)c1cc([N+](=O)[O-])ccc1NCCCc1ccccc1 [NPPB]
IC50 (VRAC): 21 µM

O=C(Nc1cccc(C(F)(F)F)c1)Nc1ccc(Br)cc1-c1nnn[nH]1 [NS3623]
IC50 (VRAC): 1.8 µM

O=C(Nc1cc(C(F)(F)F)cc(C(F)(F)F)c1)Nc1ccc(Br)cc1-c1nnn[nH]1 [NS3728]
tumour growth rate / anti-tumor effect ([5]; 5 million C6 cells, flank of Fisher rats, NS3728 40 mg/kg/day oral, temozolomide 25 mg/kg/day, alone or combined, terminated day 4 of treatment): neither NS3728 (40 mg/kg/day) nor temozolomide (25 mg/kg/day) exhibited any significant anti-tumor effect
tumour growth inhibition as measured by tumour weight (C6 glioma cells): significant inhibition of tumour growth
tumour volume growth curves [1]: mild (non-significant) depression of the growth curves
cell viability ([2]; 40 μM NS3728 monotherapy): did not decrease cell viability
cell viability ([3]; 50 μM NS3728, 72 hours): did not decrease cell viability
cell viability ([6]; 30 μM NS3728, 48 hours): about 85 % of untreated cells
cell viability ([7]; 20 μM NS3728, 48 hours): about 85 % of untreated cells
cell viability [8]: 70 % of untreated control
cell viability ([4]; 40 μM NS3728, 72 hours): 60 % of untreated control
cell viability (HCT116 parental cells; 40 μM NS3728, SN-38 experiment, 48 hours): about 50 % of untreated cells
cell viability (HCT116 parental cells; 50 μM NS3728, SN-38 experiment, 48 hours): about 50 % of untreated cells
cell viability (HCT116 parental cells; NS3728 alone in the OXP experiment (concentration not given in the sentence), 48 hours): about 50 % of untreated cells
cell viability (HT29 parental cells; 40 μM NS3728, 48 hours): about 90 % of untreated cells
cell viability (HT29 parental cells; 50 μM NS3728, 48 hours): about 77 % of untreated cells
IC50 (VRAC): 0.4 µM
cell viability (LoVo parental cells; 40 μM NS3728, 48 hours): about 45 % of untreated cells
cell viability (LoVo parental cells; 50 μM NS3728, 48 hours): about 38 % of untreated cells
cell viability ([9]; 30 μM NS3728, 48 hours (increased viability)): about 120 % of untreated cells
cell viability ([9]; 40 μM NS3728, 48 hours): no effect on cell viability
cell viability ([9]; 50 μM NS3728, 48 hours): about 85 % of untreated cells
cell viability ([10]; 30 μM NS3728, 48 hours): about 80 % of untreated cells
cell viability ([10]; 50 μM NS3728, 48 hours): about 50 % of untreated cells
inhibition of cisplatin mediated apoptosis (cancer cells): inhibit cisplatin mediated apoptosis
viability at 40 µM [11]: ~57%

O=C(Nc1ccc([N+](=O)[O-])cc1)Nc1ccc(Br)cc1-c1nnn[nH]1 [NS3749]
IC50 (VRAC): 1.4 µM

O=C1[O][Pt]2([NH][C@@H]3CCCC[C@H]3[NH]2)[O]C1=O [OXP, oxaliplatin, reference compound]
cell viability (HCT116 parental cells; OXP alone, 48 hours): dose-dependently decreased cell viability

CCc1c2c(nc3ccc(O)cc13)-c1cc3c(c(=O)n1C2)COC(=O)[C@]3(O)CC [SN-38, reference compound]
cell viability ([6]; 4 μM SN-38, 48 hours): almost no effect on cell viability
cell viability ([7]; 0.1 μM SN-38, 48 hours): about 43 % of untreated cells
cell viability (HCT116 parental cells; 0.16 μM SN-38, 48 hours): about 50 % of untreated cells
cell viability (HT29 parental cells; 0.032 μM SN-38, 48 hours): about 77 % of untreated cells
cell viability (LoVo parental cells; 0.0064 μM SN-38, 48 hours): about 53 % of untreated cells
cell viability ([9]; 0.8 μM SN-38, 48 hours): about 78 % of untreated cells
cell viability ([10]; 0.16 μM SN-38, 48 hours): about 78 % of untreated cells

CC(=O)O[C@H]1C(=O)[C@@]2(C)[C@H]([C@H](OC(=O)c3ccccc3)[C@]3(O)C[C@H](OC(=O)[C@H](O)[C@@H](NC(=O)c4ccccc4)c4ccccc4)C(C)=C1C3(C)C)[C@]1(OC(C)=O)CO[C@@H]1C[C@@H]2O [paclitaxel]
tumour volume growth curves [1]: mild (non-significant) depression of the growth curves

Cn1nnc2c(C(N)=O)ncn2c1=O [temozolomide, reference compound]
signs of toxicity (subdued behaviour, hunched appearance, loss of body weight) ([5]; all animals treated with temozolomide 25 mg/kg/day): Clear signs of toxicity
